Test results as given in patent US8853174B2, “Agent for preventing or ameliorating skin aging” (Kao Corporation, priority 2008, dated 2014).

Test system: Human skin fibroblasts
Assay: Measurement of contraction force generated by cells (fibroblast-embedded collagen gel culture system)
Assay type: cell-based
Conditions: for enhancement in the contraction force generated by fibroblasts (in words): 3 μM; for Mean value of contraction force generated by cells: Test Example 1, human skin fibroblasts in collagen gel, final concentration 3 μM

SMILES | enhancement in the contraction force generated by fibroblasts (in words) | Mean value of contraction force generated by cells [dyne]
C/C=C(/C)C(=O)O[C@H]1[C@H](OC(C)=O)[C@]2(CO)[C@H](O)C[C@]3(C)C(=CC[C@@H]4[C@@]5(C)CC[C@H](O[C@@H]6O[C@H](C(=O)O)[C@@H](O[C@@H]7O[C@H](CO)[C@@H](O)[C@H](O)[C@H]7O)[C@H](O)[C@H]6O[C@@H]6O[C@H](CO)[C@@H](O)[C@H](O)[C@H]6O)[C@](C)(CO)[C@@H]5CC[C@]43C)[C@@H]2CC1(C)C [Escin Ib] | no enhancement | 0.0
C/C=C(\C)C(=O)O[C@H]1[C@H](OC(C)=O)[C@]2(CO)[C@H](O)C[C@]3(C)C(=CC[C@@H]4[C@@]5(C)CC[C@H](O[C@@H]6O[C@H](C(=O)O)[C@@H](O[C@@H]7O[C@H](CO)[C@@H](O)[C@H](O)[C@H]7O)[C@H](O)[C@H]6O[C@@H]6O[C@H](CO)[C@@H](O)[C@H](O)[C@H]6O)[C@](C)(CO)[C@@H]5CC[C@]43C)[C@@H]2CC1(C)C [Escin Ia] | no enhancement | 0.0
